Bounds are passed on as bounds.

The target in one experiment is T1, rat NaPi-2b (Rattus norvegicus, UniProt Q9JJ09).
T1 construct: expressed in transfected cells; host or cells: Xenopus oocytes injected with cRNA
T1 sequence (Q9JJ09 1-695): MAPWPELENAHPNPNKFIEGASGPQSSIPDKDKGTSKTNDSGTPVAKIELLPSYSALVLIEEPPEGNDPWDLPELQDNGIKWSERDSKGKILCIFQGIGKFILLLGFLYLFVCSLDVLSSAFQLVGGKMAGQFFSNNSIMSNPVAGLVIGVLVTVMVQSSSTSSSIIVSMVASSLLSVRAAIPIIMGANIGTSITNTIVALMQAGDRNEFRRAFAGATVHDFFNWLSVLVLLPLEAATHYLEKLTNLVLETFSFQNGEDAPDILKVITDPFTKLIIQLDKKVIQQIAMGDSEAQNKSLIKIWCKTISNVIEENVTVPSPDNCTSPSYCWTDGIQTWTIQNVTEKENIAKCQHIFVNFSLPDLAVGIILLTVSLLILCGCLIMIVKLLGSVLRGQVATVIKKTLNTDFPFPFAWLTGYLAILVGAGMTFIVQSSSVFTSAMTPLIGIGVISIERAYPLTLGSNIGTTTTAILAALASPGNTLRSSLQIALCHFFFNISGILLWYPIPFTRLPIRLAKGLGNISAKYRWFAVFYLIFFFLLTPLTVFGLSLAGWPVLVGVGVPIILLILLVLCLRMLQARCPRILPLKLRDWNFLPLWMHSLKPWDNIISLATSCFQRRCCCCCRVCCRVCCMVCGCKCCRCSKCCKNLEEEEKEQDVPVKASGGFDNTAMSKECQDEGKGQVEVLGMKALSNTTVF
In words: Sodium-dependent phosphate uptake of Xenopus oocytes which expressed NaPi-2b (32P). Particulars: Xenopus oocytes expressing rat NaPi-2b, 32P radioactive phosphorus; read-out: IC50 (phosphate uptake inhibitory activity). The class given is cell-based. Put shortly:
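Percent inhibition at 300 μM and 100 μM comes from the same inhibition curve of 32P uptake. Assay used oocytes expressing rat NaPi-2b after 2 days of culture.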
As for `CCN(CC)CCN(C)Cc1cccc(C(=O)Nc2ccc(Cl)cc2C(=O)N/N=C/c2cccc(OC)c2)c1` [Compound 385, N-[4-Chloro-2-(3-methoxy-benzylidene-hydrazinocarbonyl)-phenyl]-3-{[(2-diethylamino-ethyl)-methyl-amino]-methyl}-benzamide], the IC50 was found to be 310 nM.

Regarding `COc1ccc(C(=O)Nc2ccccc2C(=O)N/N=C(\C)c2cccc(F)c2)cc1OC` [Compound 213, N-{2-[1-(3-Fluoro-phenyl)-ethylidene-hydrazinocarbonyl]-phenyl}-3,4-dimethoxy-benzamide], the IC50 was 16600 nM. For `O=C(Nc1sc2c(c1C(=O)N/N=C/c1ccc(Cl)c(C(F)(F)F)c1)CCCC2)c1cccc(CN2CCC(CO)CC2)c1` [Compound 643, N-[3-(4-Chloro-3-trifluoromethyl-benzylidene-hydrazinocarbonyl)-4,5,6,7-tetrahydro-benzo[b]thiophen-2-yl]-3-(4-hydroxymethyl-piperidin-1-ylmethyl)-benzamide], the IC50 came out at 3680 nM. Regarding `CCN(CC)CCN(C)Cc1cccc(C(=O)Nc2ccc(OCCOCCOC)cc2C(=O)N/N=C/c2ccc(C)cc2)c1` [Compound 1034, 3-{[(2-Diethylamino-ethyl)-methyl-amino]-methyl}-N-[4-[2-(2-methoxy-ethoxy)-ethoxy]-2-(4-methyl-benzylidene-hydrazinocarbonyl)-phenyl]-benzamide], the IC50 came out at 17200 nM.

In the case of `CCN(CC)CCN(C)Cc1ccc(C(=O)Nc2ccc(Br)cc2C(=O)N/N=C/c2cccc(F)c2)cc1` [Compound 288, N-[4-Bromo-2-(3-fluoro-benzylidene-hydrazinocarbonyl)-phenyl]-4-{[(2-diethylamino-ethyl)-methyl-amino]-methyl}-benzamide], the IC50 is 1310 nM.

Turning to `Cc1cccc(/C=N/NC(=O)c2cc(Br)ccc2NC(=O)c2cccc(CSc3ccncc3)c2)c1` [Compound 197, N-[4-Bromo-2-(3-methyl-benzylidene-hydrazinocarbonyl)-phenyl]-3-(pyridin-4-ylsulfanylmethyl)-benzamide], the IC50 is 4870 nM. For `Cc1csc(NC(=O)c2cccc(CN3CCC(O)CC3)c2)c1C(=O)N/N=C/c1ccc(Cl)c(C(F)(F)F)c1` [Compound 597, N-[3-(4-Chloro-3-trifluoromethyl-benzylidene-hydrazinocarbonyl)-4-methyl-thiophen-2-yl]-3-(4-hydroxy-piperidin-1-ylmethyl)-benzamide], the IC50 worked out at 1470 nM.

On to `Cc1ccc(/C=N/NC(=O)c2cc3ccccc3cc2NC(=O)c2cccc(CN(CC(C)O)CC(C)O)c2)cc1` (centres unmarked) [Compound 960, 3-{[Bis-(2-hydroxy-propyl)-amino]-methyl}-N-[3-(4-methyl-benzylidene-hydrazinocarbonyl)-naphthalen-2-yl]-benzamide], for which the IC50 was determined as 1120 nM. In the case of `CCCN(CCC)c1ccc(NC(=O)c2cccc(CN(C)CCN(CC)CC)c2)c(C(=O)N/N=C/c2ccc(OC)cc2)c1` [Compound 912, 3-{[(2-Diethylamino-ethyl)-methyl-amino]-methyl}-N-[4-dipropylamino-2-(4-methoxy-benzylidene-hydrazinocarbonyl)-phenyl]-benzamide], the IC50 is 1040 nM. Still for that read-out and setting: then `COc1cccc(/C=N/NC(=O)c2cc(Br)ccc2NC(=O)c2ccc(CN3CCC(CO)CC3)cc2)c1` [Compound 339, N-[4-Bromo-2-(3-methoxy-benzylidene-hydrazinocarbonyl)-phenyl]-4-(4-hydroxymethyl-piperidin-1-ylmethyl)-benzamide], with 12800 nM; and `O=c1c2c3c(sc2nc(-c2cccc(CSc4nc[nH]n4)c2)n1/N=C/c1ccc(F)cc1)CCCC3` [Compound 648, 3-[(4-Fluoro-benzylidene-)-amino]-2-[3-(1H-[1,2,4]triazol-3-ylsulfanylmethyl)-phenyl]-5,6,7,8-tetrahydro-3H-benzo[4,5]thieno[2,3-d]pyrimidin-4-one], with 2040 nM; and `O=C(Nc1sc2c(c1C(=O)N/N=C/c1ccc(Cl)c(C(F)(F)F)c1)CCCC2)c1cccc(CN2CCC(N3CCCCC3)CC2)c1` [Compound 619, 3-[1,4′]Bipiperidinyl-1′-ylmethyl-N-[3-(4-chloro-3-trifluoromethyl-benzylidene-hydrazinocarbonyl)-4,5,6,7-tetrahydro-benzo[b]thiophen-2-yl]-benzamide], with less than 3000 nM. `COc1ccc(C(=O)Nc2ccc(Br)cc2C(=O)N/N=C/c2ccccc2F)cc1OC` [Compound 28, N-[4-Bromo-2-(2-fluoro-benzylidene-hydrazinocarbonyl)-phenyl]-3,4-dimethoxy-benzamide]: the IC50 amounted to 5120 nM. In the case of `Cc1csc(NC(=O)c2cccc(CN3CCC(N4CCCCC4)CC3)c2)c1C(=O)N/N=C/c1ccc(Cl)c(C(F)(F)F)c1` [Compound 573, 3-[1,4′]Bipiperidinyl-1′-ylmethyl-N-[3-(4-chloro-3-trifluoromethyl-benzylidene-hydrazinocarbonyl)-4-methyl-thiophen-2-yl]-benzamide], the IC50 was 1750 nM. Still for that read-out and setting: in the case of `CCN(CC)CCN(Cc1cccc(C(=O)Nc2sc3c(c2C(=O)N/N=C/c2ccc(F)cc2)CCCC3)c1)C(C)=O` [Compound 654, 3-{[Acetyl-(2-diethylamino-ethyl)-amino]-methyl}-N-[3-(4-fluoro-benzylidene-hydrazinocarbonyl)-4,5,6,7-tetrahydro-benzo[b]-thiophen-2-yl]-benzamide] it was 2030 nM; in that of `COc1cc(OC)cc(C(=O)Nc2ccc(Br)cc2C(=O)NN=Cc2cccc(C)c2)c1` [Compound 118, N-[4-Bromo-2-(3-methyl-benzylidene-hydrazinocarbonyl)-phenyl]-3,5-dimethoxy-benzamide], 6070 nM; in that of `CCN(CC)CCN(C)Cc1cccc(C(=O)Nc2ccc(N3CCCC3)cc2C(=O)N/N=C/c2ccc(OC)cc2)c1` [Compound 918, 3-{[(2-Diethylamino-ethyl)-methyl-amino]-methyl}-N-[2-(4-methoxy-benzylidene-hydrazinocarbonyl)-4-pyrrolidin-1-yl-phenyl]-benzamide], 1550 nM.

Take `COc1ccc(C(=O)Nc2ccc(Cl)cc2C(=O)N/N=C/c2cccc(O)c2)cc1OC` [Compound 69, N-[4-Chloro-2-(3-hydroxy-benzylidene-hydrazinocarbonyl)-phenyl]-3,4-dimethoxy-benzamide]: the concentration for half-maximal inhibition (IC50) worked out at 3930 nM. Regarding `Cc1ccc(/C=N/NC(=O)c2cc(N3CCC(C)CC3)ccc2NC(=O)c2cccc(CSCCO)c2)cc1C` [Compound 1069, N-[2-(3,4-Dimethyl-benzylidene-hydrazinocarbonyl)-4-(4-methyl-piperidin-1-yl)-phenyl]-3-(2-hydroxy-ethylsulfanylmethyl)-benzamide], the IC50 was less than 1000 nM.

Turning to `Cc1ccc(/C=N/NC(=O)c2ccccc2NC(=O)c2ccc(F)cc2)cc1C` [Compound 96, N-[2-(3,4-Dimethyl-benzylidene-hydrazinocarbonyl)-phenyl]-4-fluoro-benzamide], the IC50 worked out at 5940 nM.

As for `CCN(CC)CCN(C)Cc1ccc(C(=O)Nc2ccc(Br)cc2C(=O)N/N=C/c2cccc(OC)c2)cc1` [Compound 291, N-[4-Bromo-2-(3-methoxy-benzylidene-hydrazinocarbonyl)-phenyl]-4-{[(2-diethylamino-ethyl)-methyl-amino]-methyl}-benzamide], the IC50 amounted to 1160 nM.

As to `CCN(CC)CC(O)COc1ccc(NC(=O)c2cccc(CN(CC(C)O)CC(C)O)c2)c(C(=O)N/N=C/c2ccc(Cl)c(C(F)(F)F)c2)c1` (centres unmarked) [Compound 952, 3-{[Bis-(2-hydroxy-propyl)-amino]-methyl}-N-[2-(4-chloro-3-trifluoromethyl-benzylidene-hydrazinocarbonyl)-4-(3-diethylamino-2-hydroxy-propoxy)-phenyl]-benzamide], the IC50 worked out at 19200 nM.

Staying with this experiment, now noted: phosphate uptake, oocytes expressing rat NaPi-2b; 300 μM, determined from inhibition curve.
The compound `Cc1ccc(/C=N/NC(=O)c2cc(N3CCCC(C(=O)O)C3)ccc2NC(=O)c2cccc(CSCCO)c2)cc1C` (centres unmarked) [Compound 934, 1-{3-(3,4-Dimethyl-benzylidene-hydrazinocarbonyl)-4-[3-(2-hydroxy-ethylsulfanylmethyl)-benzoylamino]-phenyl}-piperidine-3-carboxylic acid] showed an inhibition at 300 µM of 39.3%. Still for that read-out and setting: in the case of `Cc1ccc(/C=N/NC(=O)c2scc(C)c2NC(=O)c2cccc(CN3CCN(CCO)CC3)c2)cc1` [Compound 533, 3-[4-(2-Hydroxy-ethyl)-piperazin-1-ylmethyl]-N-[4-methyl-2-(4-methyl-benzylidene-hydrazinocarbonyl)-thiophen-3-yl]-benzamide] it was 36.9%; in that of `CCN(CC)Cc1cccc(C(=O)Nc2ccsc2C(=O)N/N=C/c2cccc(F)c2)c1` [Compound 995, 3-Diethylaminomethyl-N-[2-(3-fluoro-benzylidene-hydrazinocarbonyl)-thiophen-3-yl]-benzamide], 42.1%. In the case of `Cc1ccc(/C=N/NC(=O)c2c(C)csc2NC(=O)c2cccc(CSCCS(=O)(=O)O)c2)cc1` [Compound 782, 2-{3-[4-Methyl-3-(4-methyl-benzylidene-hydrazinocarbonyl)-thiophen-2-ylcarbamoyl]-benzylsulfanyl}-ethanesulfonic acid], at 300 µM the inhibition was 86.8%.

(Values after patent US8134015B2, “Compound inhibiting in vivo phosphorous transport and medicine containing the same” (Kyowa Hakko Kirin Co., Ltd., priority 2003, dated 2012).)
